Assays:
[1] = target: T1, Beta-secretase 2 (Homo sapiens, UniProt Q9Y5Z0)
T1 sequence (Q9Y5Z0 whole entry): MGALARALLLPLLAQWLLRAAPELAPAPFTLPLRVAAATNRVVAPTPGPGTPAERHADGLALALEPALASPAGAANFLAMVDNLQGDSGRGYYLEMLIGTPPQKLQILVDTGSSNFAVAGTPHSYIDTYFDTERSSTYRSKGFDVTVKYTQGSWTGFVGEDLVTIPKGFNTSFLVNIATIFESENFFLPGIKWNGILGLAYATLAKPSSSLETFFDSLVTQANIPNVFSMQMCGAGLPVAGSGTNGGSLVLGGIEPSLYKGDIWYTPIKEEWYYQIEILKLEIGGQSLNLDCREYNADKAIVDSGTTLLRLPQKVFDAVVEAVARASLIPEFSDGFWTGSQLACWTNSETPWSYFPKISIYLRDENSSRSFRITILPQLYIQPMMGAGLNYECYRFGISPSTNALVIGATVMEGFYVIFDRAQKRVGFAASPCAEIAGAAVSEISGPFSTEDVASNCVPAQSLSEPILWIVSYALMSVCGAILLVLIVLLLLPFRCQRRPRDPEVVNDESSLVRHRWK

[2] = target: T2, Beta-secretase 1 (Homo sapiens, UniProt P56817)
T2 sequence (P56817 whole entry): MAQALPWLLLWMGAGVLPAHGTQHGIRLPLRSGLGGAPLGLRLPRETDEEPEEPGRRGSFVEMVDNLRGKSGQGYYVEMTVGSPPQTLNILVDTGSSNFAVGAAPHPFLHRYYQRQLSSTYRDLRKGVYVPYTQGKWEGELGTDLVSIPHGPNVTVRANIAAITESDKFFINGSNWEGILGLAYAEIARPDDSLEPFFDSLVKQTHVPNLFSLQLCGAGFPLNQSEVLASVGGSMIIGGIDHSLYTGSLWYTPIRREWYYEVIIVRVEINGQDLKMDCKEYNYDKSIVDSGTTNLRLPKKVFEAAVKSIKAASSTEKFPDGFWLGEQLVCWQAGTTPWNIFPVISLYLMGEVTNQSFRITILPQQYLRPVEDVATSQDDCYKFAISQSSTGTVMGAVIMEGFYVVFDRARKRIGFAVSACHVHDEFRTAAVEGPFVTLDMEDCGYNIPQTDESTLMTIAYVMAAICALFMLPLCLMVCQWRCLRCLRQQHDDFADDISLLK

[3] = target: T2, Beta-secretase 1; remark: listed apart in the source
Description: Inhibition of BACE1 in HEK293 cells expressing APP swedish and london mutant assessed as decrease of amyloid-beta40 level after 4 hrs by electrochemiluminescence-based sandwich ELISA

[4] = AUC (0 to 6 hrs) in rat at 10 mg/kg, po; format: ADME, organism-based; set-up: time < 6 hr, dose 10 mg/kg, route oral; conditions: plasma
[5] = tested on: Rattus norvegicus; assay: Antialzheimer activity in Sprague-Dawley rat assessed as reduction in amyloid beta40 level in plasma at 30 mg/kg, po after 3 hrs relative to vehicle treated control; format: functional; set-up: scale not given: the % may be the effect or the level left
[6] = Ratio of drug level in brain to plasma in rat at 10 mg/kg, po; format: ADME, organism-based; set-up: dose 10 mg/kg, route oral; conditions: read-out: BPR
[7] = tested on: Plasma; assay: Plasma concentration in Sprague-Dawley rat at 30 mg/kg, po; format: ADME, organism-based; set-up: dose 30 mg/kg, route oral; conditions: in vivo
[8] = Ratio of drug level in brain to plasma in Sprague-Dawley rat at 30 mg/kg, po; format: ADME, organism-based; set-up: dose 30 mg/kg, route oral; conditions: read-out: BPR
[9] = tested on: Rattus norvegicus; assay: Antialzheimer activity in Sprague-Dawley rat assessed as reduction in amyloid beta40 level in CSF at 30 mg/kg, po after 3 hrs relative to vehicle treated control; format: functional; set-up: scale not given: the % may be the effect or the level left

## Cc1cncc(-c2cccc(C3(C4CC4)NC(=N)N(C)C3=O)c2)c1 (configuration not stated)
[1]
  Ki: 68 nM
[2]
  Ki: 250 nM
[3]
  IC50: 640 nM

## CN1C(=N)N[C@@](c2cccc(-c3cncc(Cl)c3)c2)(C2CC2)C1=O
[4]
  AUC(0-t) at 6 h: 3.1 µM·h

## CN1C(=N)NC(C)(c2cccc(-c3cccc(Cl)c3)c2)C1=O (configuration not stated)
[2]
  Ki: 720 nM
[3]
  IC50: 4800 nM

## CCC1(c2cccc(-c3cccc(Cl)c3)c2)NC(=N)N(C)C1=O (configuration not stated)
[2]
  Ki: 450 nM
[3]
  IC50: 5300 nM

## CC(C)C1(c2cccc(-c3cccc(Cl)c3)c2)NC(=N)N(C)C1=O (configuration not stated)
[2]
  Ki: 320 nM
[3]
  IC50: 4600 nM

## CN1C(=N)NC(c2cccc(-c3cccc(Cl)c3)c2)(C2CC2)C1=O (configuration not stated)
[2]
  Ki: 47 nM
[3]
  IC50: 1900 nM

## CN1C(=N)NC(c2cccc(-c3cccc(Cl)c3)c2)(C2CCC2)C1=O (configuration not stated)
[2]
  Ki: 110 nM
[3]
  IC50: 2800 nM

## CN1C(=N)NC(c2cccc(-c3cccc(Cl)c3)c2)(C2CCCC2)C1=O (configuration not stated)
[2]
  Ki: 470 nM
[3]
  IC50: 6900 nM

## CN1C(=N)NC(c2cccc(-c3cccc(Cl)c3)c2)(c2ccccn2)C1=O (configuration not stated)
[2]
  Ki: 860 nM
[3]
  IC50: 5900 nM

## CN1C(=N)NC(c2cccnc2)(c2cccc(-c3cccc(Cl)c3)c2)C1=O (configuration not stated)
[2]
  Ki: 170 nM
[3]
  IC50: 4400 nM

## CN1C(=N)NC(c2ccncc2)(c2cccc(-c3cccc(Cl)c3)c2)C1=O (configuration not stated)
[2]
  Ki: > 10000 nM

## CN1C(=N)NC(c2cncnc2)(c2cccc(-c3cccc(Cl)c3)c2)C1=O (configuration not stated)
[2]
  Ki: 830 nM
[3]
  IC50: 21000 nM

## CN1C(=N)NC(c2cccc(-c3cc(Cl)cc(Cl)c3)c2)(C2CC2)C1=O (configuration not stated)
[2]
  Ki: 30 nM
[3]
  IC50: 2400 nM

## COc1cccc(-c2cccc(C3(C4CC4)NC(=N)N(C)C3=O)c2)c1 (configuration not stated)
[1]
  Ki: 7.8 nM

## CN1C(=N)NC(c2cccc(-c3cccc(C#N)c3)c2)(C2CC2)C1=O (configuration not stated)
[1]
  Ki: 30 nM
[2]
  Ki: 130 nM
[3]
  IC50: 940 nM

## CN1C(=N)NC(c2cccc(-c3cccnc3)c2)(C2CC2)C1=O (configuration not stated)
[1]
  Ki: 360 nM
[2]
  Ki: 270 nM
[3]
  IC50: 880 nM

## COc1cncc(-c2cccc(C3(C4CC4)NC(=N)N(C)C3=O)c2)c1 (configuration not stated)
[1]
  Ki: 11 nM
[2]
  Ki: 100 nM
[3]
  IC50: 390 nM

## CN1C(=N)NC(c2cccc(-c3cncc(C#N)c3)c2)(C2CC2)C1=O (configuration not stated)
[1]
  Ki: 170 nM
[2]
  Ki: 270 nM
[3]
  IC50: 610 nM

## CN1C(=N)NC(c2cccc(-c3cncc(F)c3)c2)(C2CC2)C1=O (configuration not stated)
[1]
  Ki: 139 nM
[2]
  Ki: 160 nM
[3]
  IC50: 800 nM

## CC#Cc1cncc(-c2cccc([C@@]3(C4CC4)NC(=N)N(C)C3=O)c2)c1
[5]
  Activity: 85%
[6]
  Kp: 0.3
[4]
  AUC(0-t) at 6 h: 17.9 µM·h
[7]
  concentration: 4.2 µM
[8]
  Kp: 0.2
[2]
  Ki: 5.4 nM
[3]
  IC50: 82 nM
[9]
  Activity: 54%

## CN1C(=N)NC(c2ccccc2)(c2cccc(-c3ccccc3)c2)C1=O (racemic)
[2]
  Ki: 3300 nM

## COc1ccc(-c2cccc(C3(c4ccccc4)NC(=N)N(C)C3=O)c2)cc1 (racemic)
[2]
  Ki: 3800 nM

## CCOc1cccc(-c2cccc(C3(c4ccccc4)N=C(N)N(C)C3=O)c2)c1 (racemic)
[2]
  Ki: 460 nM

## CN1C(=N)NC(c2ccccc2)(c2cccc(F)c2)C1=O (racemic)
[2]
  Ki: 720 nM

## Cc1cccc(C2(c3ccccc3)N=C(N)N(C)C2=O)c1 (racemic)
[2]
  Ki: 550 nM

## CN1C(=O)C(c2ccccc2)(c2cccc(C#N)c2)N=C1N (racemic)
[2]
  Ki: 370 nM

## CN1C(=O)C(c2ccccc2)(c2cccc(-c3ccncc3)c2)N=C1N (racemic)
[2]
  Ki: 3800 nM

## CN1C(=N)NC(c2ccccc2)(c2cccc(-c3cnccn3)c2)C1=O (racemic)
[2]
  Ki: 310 nM

## Cc1cncc(-c2cccc(C3(c4ccccc4)NC(=N)N(C)C3=O)c2)c1 (racemic)
[2]
  Ki: 430 nM

## CN1C(=N)NC(c2ccccc2)(c2cccc(-c3cncc(C#N)c3)c2)C1=O (racemic)
[2]
  Ki: 470 nM

## CN1C(=N)NC(c2ccccc2)(c2cccc(-c3cncc(F)c3)c2)C1=O (racemic)
[2]
  Ki: 290 nM

## CN1C(=N)NC(c2ccccc2)(c2cccc(-c3cncc(Cl)c3)c2)C1=O (racemic)
[2]
  Ki: 90 nM

## CN1C(=O)C(c2ccccc2)(c2cccc(Cl)c2)N=C1N (racemic)
[2]
  Ki: 300 nM

From ChEMBL document CHEMBL2010674, “Structure based design of iminohydantoin BACE1 inhibitors: identification of an orally available, centrally active BACE1 inhibitor” (Bioorg Med Chem Lett, 2012)
